Measured values reported in patent publication US20100217003A1, “1,2,3,4-TETRAHYDROISOQUINOLINE DERIVATIVES HAVING EFFECTS OF PREVENTING AND TREATING DEGENERATIVE AND INFLAMMATORY DISEASES” (priority 2006, published 2010).

Assays:
[1] = system: BV-2 cell; assay: Inhibitory effect on NO production in LPS-stimulated BV-2 microglial cells (Griess); type: cell-based, mouse
Experimental: BV-2 microglial cell line, CATH.a neuron line and SK-N-BE(2)C neuron line were cultured in Dulbecco's modified Eagle's medium (DMEM) supplemented with 10% bovine serum, […] penicillin, and 10 ? /ml streptomycin at 37° C. in an atmosphere of 5% CO2 and 95% air. The cells were planted on a polystyrene petri dish at the following densities: BV-2 (2.5×10^5 cells/24 well or 2.6×10^6 cells/60 mm dish; SK− N-BE(2)C (1.5×10^5 cells/24 well); and CATH.a (2.4×10^4 cells/96 well).
Measurement of NO Production
200 ? of cell culture medium fraction and 100 ? of Griess reagent (2.5% […], 1% sulfanilamide and 0.1% naphthylethylenediamine dihydrochloride) were mixed in a 96-well microtiter plate, and the absorbance of a sample was read at 540 nm using a microtiter plate reader (multi-well spectrophotometer). The concentration of nitrite was calculated using a standard curve for sodium nitrite.
To determine whether EHMTIQ (11a) inhibits NO production in an activated […] cell, a mouse microglial cell line, BV-2, was used in this assay. Lipopolysaccharide (LPS)-stimulated BV-2 cell samples were treated with various concentrations of EHMTIQ (11a) and then the NO level of a sample was measured. The results are illustrated in FIG. 1.

[2] = system: BV-2 cell; assay: Cytotoxicity of single treatment in BV-2 cells; type: cell-based, mouse; conditions: single treatment (not illustrated)
[3] = system: iNOS mRNA; assay: Expression of iNOS genes in LPS-stimulated BV-2 cells (RT-PCR); type: cell-based, mouse
Experimental: (§1) RT-PCR for GTPCH, iNOS, TNF-α, IL-1β and COX-2
(§2) 5 ? each of total RNA samples isolated from BV-2 cells were subjected to reverse-transcription (RT), and then polymerase chain reaction (PCR) for 30 cycles under the conditions of 94° C. for 30 seconds, 60° C. for 40 seconds and 72° C. for one minute. Primers used in the PCR were as follows: iNOS (forward, ATGTCCGAAG-CAAACATCAC; reverse, TAATGTC CAGGAAGTAGGTG), TNF-α (forward, CA-[…] reverse, CAGAGCAATGACTC-CAAAGTAGACCT), IL-1β (forward, […]; reverse, CAGGACAGGTAT AGATTCTTTCCTTT), COX-2 (forward, […]; reverse, […]), GTPCH (forward, GGATACCAGGAGACCAT CTCA; reverse, TAGCATGGTGC-TAGTGACAGT). RT-PCR for B2M was simultaneously performed as internal control. The PCR products were subjected to electrophoresis in a 1.5% agarose gel, thereby confirming the presence of a desired size of single band.
The assay was performed to determine whether EHMTIQ (11a) affects the expression of iNOS genes. LPS-stimulated BV-2 cell samples were treated with various concentrations of EHMTIQ (11a), and the expression of iNOS gene was estimated by RT-PCR. The results are illustrated in FIG. 6.

[4] = system: GTPCH mRNA; assay: Expression of GTPCH genes in LPS-stimulated BV-2 cells (RT-PCR); type: cell-based, mouse
Experimental: as §1, §2
GTP cyclohydrolase I (GTPCH) is a rate-limiting enzyme in the synthesis of tetrahydrobiopterin (BH4) which is essential for iNOS catalysis. Accordingly, the down regulation of GTPCH may lower NO production. The assay was performed to determine whether EHMTIQ (11a) affects the expression of GTPCH genes induced by LPS. The LPS-stimulated BV-2 cell samples were treated with various concentrations of EHMTIQ (11a) and the expression of GTPCH genes was estimated by RT-PCR. The results are illustrated in FIG. 7.

[5] = system: NF-kB p65; assay: NF-kB p65 shift to nucleus in LPS-treated cells (Western blot); type: cell-based, mouse; conditions: 10 (unit as image)
Experimental: Assay for NF-kB p65 Shift to Nucleus
The cells were washed with cold phosphate buffered saline (PBS) and gently suspended in 400 ? buffer solution containing 10 mM HEPES (pH 7.9), 10 mM KCl, 0.1 mM EDTA, 0.1 mM EGTA, 1 mM DTT and 0.5 mM PMSF. The cell suspension was placed on ice for 15 minutes, and reacted with 25 ? NP-40 (0.5%) for 10 seconds. Cen-trifugation for 30 seconds yielded nuclear pellets, which were then resuspended in 50 ? of cold PBS containing 20 mM HEPES (pH 7.9), 400 mM NaCl, and 1 mM each of DTT, EDTA, EGTA and PMSF. The suspension was vortexted for 15 minutes. The nuclear extract was centrifuged at 11,000×g for 15 minutes to get supernatant solution, whose protein content was measured. Equal amounts of the cell extract (5 ? ) were subjected to electrophoresis in a 10% SDS-polyacrylamide gel and then transferred onto a polyvinylidene difluoride-nitrocellulose membrane. The membrane was blocked with TBST containing 8% skim milk at RT for one hour, incubated with primary antibody, anti-NF-kB p65 antibody (1:500 dilution), at 4° C. overnight, and further incubated with secondary antibody conjugated with horseradish peroxidase for one more hour. Protein bands were detected by a chemiluminescence detection method according to the manufacturer's indication.
A transcription factor, NF-kB, shifts into a nucleus to regulate expression of several inflammatory genes. […]

[6] = system: mouse model of Parkinson's disease induced by MPTP; assay: Mouse model of Parkinson's disease induced by MPTP (immunostaining of substantia nigra and striatum); type: in vivo

CCC(=O)N1CCc2cc(OC)c(O)cc2C1 [EHMTIQ (11a), 2-ethylcarbonyl-7-hydroxy-6-methoxy-1,2,3,4-tetrahydroisoquinoline]
NO production induced by LPS, compared with the control not treated with EHMTIQ ([1]; 5 (concentration unit printed as image)): 63±4%
NO production ([1]; 100 (concentration unit printed as image)): inhibit NO production to the control level
IC50 ([1]; Mus musculus, unit printed as image): 2810 nM
cytotoxicity [2]: did not exhibit any cytotoxicity
expression of iNOS genes compared to the control only treated with LPS ([3]; 5 (unit as image)): 82±1%
expression of iNOS genes compared to the control only treated with LPS ([3]; 100 (unit as image)): 24±1%
gene expression of GTPCH ([4]; 2.5 (unit as image)): 17±1%
gene expression of GTPCH ([4]; 100 (unit as image)): 75±1%
NF-kB p65 in nuclear fraction [5]: completely inhibited
activation of microglial cells in the substantia nigra (Iba-1 immunostaining) ([6]; MPTP mouse (FIG. 13)): inhibitory effect
dopaminergic neurons in the substantia nigra (TH immunostaining) ([6]; MPTP mouse (FIG. 14)): protective effect
degeneration of dopaminergic neurons in the substantia nigra (fluoroJade C and TH double labelling) ([6]; MPTP mouse (FIG. 14, right panels)): inhibitory effect
dopamine nerve terminals in the striatum (TH immunostaining) ([6]; MPTP mouse (FIG. 15)): protective effect
